Assay results: ChEMBL document CHEMBL2331210, “New 2-benzylsulfanyl-nicotinic acid based 1,3,4-oxadiazoles: their synthesis and biological evaluation” (2013)
In brackets after ≈: the same amount, converted by molar mass.

Legend:
UO-31 = experiment: Antitumor activity against human UO31 cells assessed as cell growth at 0.1 uM; type: functional; settings: read-out: Activity
TK-10 = experiment: Antitumor activity against human TK10 cells assessed as cell growth at 0.1 uM; type: functional; settings: read-out: Activity
SN12C = experiment: Antitumor activity against human SN12C cells assessed as cell growth at 0.1 uM; type: functional; settings: read-out: Activity
RXF 393 = experiment: Antitumor activity against human RXF393 cells assessed as cell growth at 0.1 uM; type: functional; settings: read-out: Activity
ACHN = experiment: Antitumor activity against human ACHN cells assessed as cell growth at 0.1 uM; type: functional; settings: read-out: Activity
CAKI-1 = experiment: Antitumor activity against human CAKI-1 cells assessed as cell growth at 0.1 uM; type: functional; settings: read-out: Activity
A498 = experiment: Antitumor activity against human A498 cells assessed as cell growth at 0.1 uM; type: functional; settings: read-out: Activity
SK-OV-3 = experiment: Antitumor activity against human SKOV3 cells assessed as cell growth at 0.1 uM; type: functional; settings: read-out: Activity
NCI/ADR-RES = experiment: Antitumor activity against human NCI/ADR-RES cells assessed as cell growth at 0.1 uM; type: functional; settings: read-out: Activity
OVCAR-8 = experiment: Antitumor activity against human OVCAR8 cells assessed as cell growth at 0.1 uM; type: functional; settings: read-out: Activity
OVCAR-5 = experiment: Antitumor activity against human OVCAR5 cells assessed as cell growth at 0.1 uM; type: functional; settings: read-out: Activity
OVCAR-3 = experiment: Antitumor activity against human OVCAR3 cells assessed as cell growth at 0.1 uM; type: functional; settings: read-out: Activity
OVCAR-4 = experiment: Antitumor activity against human OVCAR4 cells assessed as cell growth at 0.1 uM; type: functional; settings: read-out: Activity
IGROV-1 = experiment: Antitumor activity against human IGROV1 cells assessed as cell growth at 0.1 uM; type: functional; settings: read-out: Activity
UACC-62 = experiment: Antitumor activity against human UACC62 cells assessed as cell growth at 0.1 uM; type: functional; settings: read-out: Activity
UACC-257 = experiment: Antitumor activity against human UACC257 cells assessed as cell growth at 0.1 uM; type: functional; settings: read-out: Activity
SK-MEL-5 = experiment: Antitumor activity against human SK-MEL-5 cells assessed as cell growth at 0.1 uM; type: functional; settings: read-out: Activity
SK-MEL-28 = experiment: Antitumor activity against human SK-MEL-28 cells assessed as cell growth at 0.1 uM; type: functional; settings: read-out: Activity
MDA-MB-435 = experiment: Antitumor activity against human MDA-MB-435 cells assessed as cell growth at 0.1 uM; type: functional; settings: read-out: Activity
M14 = experiment: Antitumor activity against human M14 cells assessed as cell growth at 0.1 uM; type: functional; settings: read-out: Activity
Malme-3M = experiment: Antitumor activity against human MALME-3M cells assessed as cell growth at 0.1 uM; type: functional; settings: read-out: Activity
LOX IMVI = experiment: Antitumor activity against human LOXIMVI cells assessed as cell growth at 0.1 uM; type: functional; settings: read-out: Activity
U-251 = experiment: Antitumor activity against human U251 cells assessed as cell growth at 0.1 uM; type: functional; settings: read-out: Activity
SNB-75 = experiment: Antitumor activity against human SNB75 cells assessed as cell growth at 0.1 uM; type: functional; settings: read-out: Activity
SF-539 = experiment: Antitumor activity against human SF539 cells assessed as cell growth at 0.1 uM; type: functional; settings: read-out: Activity
SNB-19 = experiment: Antitumor activity against human SNB19 cells assessed as cell growth at 0.1 uM; type: functional; settings: read-out: Activity
SF-295 = experiment: Antitumor activity against human SF295 cells assessed as cell growth at 0.1 uM; type: functional; settings: read-out: Activity
SF-268 = experiment: Antitumor activity against human SF268 cells assessed as cell growth at 0.1 uM; type: functional; settings: read-out: Activity
SW-620 = experiment: Antitumor activity against human SW620 cells assessed as cell growth at 0.1 uM; type: functional; settings: read-out: Activity
HCT-15 = experiment: Antitumor activity against human HCT15 cells assessed as cell growth at 0.1 uM; type: functional; settings: read-out: Activity
HT-29 = experiment: Antitumor activity against human HT-29 cells assessed as cell growth at 0.1 uM; type: functional; settings: read-out: Activity
HCT-116 = experiment: Antitumor activity against human HCT116 cells assessed as cell growth at 0.1 uM; type: functional; settings: read-out: Activity
[1] = Antitumor activity against human HCC2998 cells assessed as cell growth at 0.1 uM; type: functional; settings: HCC 2998, read-out: Activity
NCI-H460 = experiment: Antitumor activity against human NCI-H460 cells assessed as cell growth at 0.1 uM; type: functional; settings: read-out: Activity
NCI-H522 = experiment: Antitumor activity against human NCI-H522 cells assessed as cell growth at 0.1 uM; type: functional; settings: read-out: Activity
NCI-H23 = experiment: Antitumor activity against human NCI-H23 cells assessed as cell growth at 0.1 uM; type: functional; settings: read-out: Activity
NCI-H226 = experiment: Antitumor activity against human NCI-H226 cells assessed as cell growth at 0.1 uM; type: functional; settings: read-out: Activity
HOP-62 = experiment: Antitumor activity against human HOP62 cells assessed as cell growth at 0.1 uM; type: functional; settings: read-out: Activity
[2] = Antitumor activity against human EKVX cells assessed as cell growth at 0.1 uM; type: functional; settings: read-out: Activity
A549 = experiment: Antitumor activity against human A549/ATCC cells assessed as cell growth at 0.1 uM; type: functional; settings: read-out: Activity
SR = experiment: Antitumor activity against human SR cells assessed as cell growth at 0.1 uM; type: functional; settings: read-out: Activity
MOLT-4 = experiment: Antitumor activity against human MOLT4 cells assessed as cell growth at 0.1 uM; type: functional; settings: read-out: Activity
RPMI-8226 = experiment: Antitumor activity against human RPMI8226 cells assessed as cell growth at 0.1 uM; type: functional; settings: read-out: Activity
K562 = experiment: Antitumor activity against human K562 cells assessed as cell growth at 0.1 uM; type: functional; settings: read-out: Activity
HL-60 = experiment: Antitumor activity against human HL60(TB) cells assessed as cell growth at 0.1 uM; type: functional; settings: read-out: Activity
CCRF-CEM = experiment: Antitumor activity against human CCRF-CEM cells assessed as cell growth at 0.1 uM; type: functional; settings: read-out: Activity
[3] = test system: Mycobacterium tuberculosis; experiment: Antitubercular activity against Mycobacterium tuberculosis H37Rv assessed as growth inhibition after 12 to 28 days by L.J. agar MIC method; type: functional
Aspergillus clavatus = experiment: Antimicrobial activity against Aspergillus clavatus MTCC 1323 assessed as growth inhibition measured after overnight incubation by broth dilution method; type: functional
Aspergillus niger = experiment: Antimicrobial activity against Aspergillus niger MTCC 282 assessed as growth inhibition measured after overnight incubation by broth dilution method; type: functional
Candida albicans = experiment: Antimicrobial activity against Candida albicans MTCC 227 assessed as growth inhibition measured after overnight incubation by broth dilution method; type: functional
Pseudomonas aeruginosa = experiment: Antimicrobial activity against Pseudomonas aeruginosa MTCC 2488 assessed as growth inhibition measured after overnight incubation by broth dilution method; type: functional
Escherichia coli = experiment: Antimicrobial activity against Escherichia coli MTCC 443 assessed as growth inhibition measured after overnight incubation by broth dilution method; type: functional
Streptococcus pyogenes = experiment: Antimicrobial activity against Streptococcus pyogenes MTCC 442 assessed as growth inhibition measured after overnight incubation by broth dilution method; type: functional
Staphylococcus aureus = experiment: Antimicrobial activity against Staphylococcus aureus MTCC 96 assessed as growth inhibition measured after overnight incubation by broth dilution method; type: functional
MDA-MB-468 = experiment: Antitumor activity against human MDA-MB-468 cells assessed as cell growth at 0.1 uM; type: functional; settings: read-out: Activity
T47D = experiment: Antitumor activity against human T47D cells assessed as cell growth at 0.1 uM; type: functional; settings: read-out: Activity
[4] = Antitumor activity against human Hs 578T cells assessed as cell growth at 0.1 uM; type: functional; settings: read-out: Activity
BT-549 = experiment: Antitumor activity against human BT549 cells assessed as cell growth at 0.1 uM; type: functional; settings: read-out: Activity
MDA-MB-231 = experiment: Antitumor activity against human MDA-MB-231/ATCC cells assessed as cell growth at 0.1 uM; type: functional; settings: read-out: Activity
DU-145 = experiment: Antitumor activity against human DU145 cells assessed as cell growth at 0.1 uM; type: functional; settings: read-out: Activity
MCF7 = experiment: Antitumor activity against human MCF7 cells assessed as cell growth at 0.1 uM; type: functional; settings: read-out: Activity
PC-3 = experiment: Antitumor activity against human PC3 cells assessed as cell growth at 0.1 uM; type: functional; settings: read-out: Activity
SK-MEL-2 = experiment: cells; settings: Homo sapiens, SK-MEL-2, read-out: Activity
Description: Antitumor activity against human SK-MEL-2 cells assessed as cell growth at 0.1 uM

## COc1cc(OC)nc(NC(=O)CSc2nnc(-c3cccnc3SCc3ccccc3)o2)n1
UO-31
  growth at 0.1 µM: 80.6%
TK-10
  growth at 0.1 µM: 98.6%
SN12C
  growth at 0.1 µM: 106%
RXF 393
  growth at 0.1 µM: 107%
ACHN
  growth at 0.1 µM: 107%
CAKI-1
  growth at 0.1 µM: 99.5%
A498
  growth at 0.1 µM: 125%
SK-OV-3
  growth at 0.1 µM: 103%
NCI/ADR-RES
  growth at 0.1 µM: 102%
OVCAR-8
  growth at 0.1 µM: 105%
OVCAR-5
  growth at 0.1 µM: 101%
OVCAR-3
  growth at 0.1 µM: 102%
OVCAR-4
  growth at 0.1 µM: 100%
IGROV-1
  growth at 0.1 µM: 114%
UACC-62
  growth at 0.1 µM: 107%
UACC-257
  growth at 0.1 µM: 105%
SK-MEL-5
  growth at 0.1 µM: 105%
SK-MEL-28
  growth at 0.1 µM: 114%
MDA-MB-435
  growth at 0.1 µM: 105%
M14
  growth at 0.1 µM: 96.7%
Malme-3M
  growth at 0.1 µM: 98.2%
LOX IMVI
  growth at 0.1 µM: 97.6%
U-251
  growth at 0.1 µM: 106%
SNB-75
  growth at 0.1 µM: 92.5%
SF-539
  growth at 0.1 µM: 94.5%
SNB-19
  growth at 0.1 µM: 107%
SF-295
  growth at 0.1 µM: 97.1%
SF-268
  growth at 0.1 µM: 104%
SW-620
  growth at 0.1 µM: 107%
HCT-15
  growth at 0.1 µM: 105%
HT-29
  growth at 0.1 µM: 100%
HCT-116
  growth at 0.1 µM: 101%
[1]
  growth at 0.1 µM: 109%
NCI-H460
  growth at 0.1 µM: 112%
NCI-H522
  growth at 0.1 µM: 88.2%
NCI-H23
  growth at 0.1 µM: 103%
NCI-H226
  growth at 0.1 µM: 101%
HOP-62
  growth at 0.1 µM: 99.7%
[2]
  growth at 0.1 µM: 105%
A549
  growth at 0.1 µM: 96.5%
SR
  growth at 0.1 µM: 96.2%
MOLT-4
  growth at 0.1 µM: 93.2%
RPMI-8226
  growth at 0.1 µM: 101%
K562
  growth at 0.1 µM: 98.2%
HL-60
  growth at 0.1 µM: 97.3%
CCRF-CEM
  growth at 0.1 µM: 108%
[3]
  growth inhibition (GI): 99%
[3]; Mycobacterium tuberculosis, H37Rv
  MIC: 250 µg/mL (≈ 503 µM)
Aspergillus clavatus
  MIC: 500 µg/mL (≈ 1010 µM)
Aspergillus niger
  MIC: 500 µg/mL (≈ 1010 µM)
Candida albicans
  MIC: 500 µg/mL (≈ 1010 µM)
Pseudomonas aeruginosa
  MIC: 250 µg/mL (≈ 503 µM)
Escherichia coli
  MIC: 100 µg/mL (≈ 201 µM)
Streptococcus pyogenes
  MIC: 125 µg/mL (≈ 252 µM)
Staphylococcus aureus
  MIC: 250 µg/mL (≈ 503 µM)
MDA-MB-468
  growth at 0.1 µM: 98.2%
T47D
  growth at 0.1 µM: 89.9%
[4]
  growth at 0.1 µM: 107%
BT-549
  growth at 0.1 µM: 99.6%
MDA-MB-231
  growth at 0.1 µM: 108%
DU-145
  growth at 0.1 µM: 108%
MCF7
  growth at 0.1 µM: 95.5%
PC-3
  growth at 0.1 µM: 104%
SK-MEL-2
  growth at 0.1 µM: 102%
